Laboratory results from patent US10738056B2 (Aduro BioTech, Inc., priority 2017, dated 2020).
Read-outs that look alike come from different tables or passages of the source.

Assays:
[1] = test system: cGAS/STING pathway in THP1 cells; experiment: THP1 cell-based cGAS/STING pathway activity assay (IRF-3-linked luciferase reporter)
How it was run: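 THP1 cells carrying an IRF-3-driven luciferase reporter were read across a range of compound concentrations, and IC50 values were derived from these concentration responses; the assay upper limit was 100 μM.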

[2] = molecular target: Human cGAS amino acids 155-522 (Homo sapiens (Human), UniProt Q8N884); experiment: cGAS biochemical activity assay (ATP remaining, Kinase-Glo Max luminescence); conditions: human cGAS 155-522, ATP remaining (Kinase-Glo Max); read-out: cGAS IC50
Human cGAS amino acids 155-522, sequence (Q8N884 157-522): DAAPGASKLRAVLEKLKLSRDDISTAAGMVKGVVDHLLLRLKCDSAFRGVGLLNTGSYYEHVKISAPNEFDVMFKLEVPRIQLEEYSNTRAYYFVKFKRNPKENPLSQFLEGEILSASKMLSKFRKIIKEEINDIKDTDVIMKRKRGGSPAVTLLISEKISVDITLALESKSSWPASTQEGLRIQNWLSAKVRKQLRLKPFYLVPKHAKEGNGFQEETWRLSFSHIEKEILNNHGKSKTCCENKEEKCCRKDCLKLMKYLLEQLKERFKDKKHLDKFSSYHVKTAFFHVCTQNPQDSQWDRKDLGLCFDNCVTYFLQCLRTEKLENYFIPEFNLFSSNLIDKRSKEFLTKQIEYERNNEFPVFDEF

| SMILES | IC50 ([1]; Homo sapiens, THP-1) | IC50 [2] | IC50 ([1]; read-out: THP-1 IC50) |
| --- | --- | --- | --- |
| COc1ccnc2oc(-c3c(C)[nH]c4c(-c5ccccc5)c(C(F)(F)F)nn4c3=O)nc12 [Compound C1058, 6-(7-methoxyoxazolo[5,4-b]pyridin-2-yl)-5-methyl-3-phenyl-2-(trifluoromethyl)pyrazolo[1,5-a]pyrimidin-7(4H)-one] | > 100 µM | < 20 µM |  |
| CO[C@@H]1CCCC1c1nnc(-c2c(C)[nH]c3c(-c4ccccc4)c(C(F)(F)F)nn3c2=O)o1 (stereo partly shown) [D1049 Iso-2] |  | < 20 µM | > 100 µM |
| COc1cccc2oc(-c3c(C(N)=O)[nH]c4c(-c5ccccc5)c(C(F)(F)F)nn4c3=O)nc12 [Compound C1132, 6-(4-methoxybenzo[d]oxazol-2-yl)-7-oxo-3-phenyl-2-(trifluoromethyl)-4,7-dihydropyrazolo[1,5-a]pyrimidine-5-carboxamide] | > 100 µM | < 20 µM |  |
| COc1cccc2oc(-c3c(C)[nH]c4c(-c5ccccc5)c(C(F)F)nn4c3=O)nc12 [Compound C1050, 2-(difluoromethyl)-6-(4-methoxybenzo[d]oxazol-2-yl)-5-methyl-3-phenylpyrazolo[1,5-a]pyrimidin-7(4H)-one] | < 20 µM | < 20 µM |  |
| Cc1[nH]c2c(-c3ccccc3)c(C(F)(F)F)nn2c(=O)c1-c1nnc(C2CCCCN2S(C)(=O)=O)o1 (stereo not shown) [Compound D1056, 5-methyl-6-(5-(1-(methylsulfonyl)piperidin-2-yl)-1,3,4-oxadiazol-2-yl)-3-phenyl-2-(trifluoromethyl)pyrazolo[1,5-a]pyrimidin-7(4H)-one] | > 100 µM | < 20 µM |  |
| Cc1[nH]c2c(-c3ccccc3)c(C(F)(F)F)nn2c(=O)c1-c1nc2c(OCCNS(C)(=O)=O)cccc2o1 [Compound C1066, N-(2-((2-(5-methyl-7-oxo-3-phenyl-2-(trifluoromethyl)-4,7-dihydropyrazolo[1,5-a]pyrimidin-6-yl)benzo[d]oxazol-4-yl)oxy)ethyl)methanesulfonamide] | > 100 µM | < 20 µM |  |
| Cc1[nH]c2c(-c3ccccc3)c(C(F)(F)F)nn2c(=O)c1-c1nnc(-c2ccnc(O)c2)o1 [Compound D1085, 6-(5-(2-hydroxypyridin-4-yl)-1,3,4-oxadiazol-2-yl)-5-methyl-3-phenyl-2-(trifluoromethyl)pyrazolo[1,5-a]pyrimidin-7(4H)-one] | > 100 µM | < 20 µM |  |
| COC1CCCN(c2nnc(-c3c(C)[nH]c4c(-c5ccccc5)c(C(F)(F)F)nn4c3=O)o2)C1 (stereo not shown) [Compound D1027, 6-(5-(3-methoxypiperidin-1-yl)-1,3,4-oxadiazol-2-yl)-5-methyl-3-phenyl-2-(trifluoromethyl)pyrazolo[1,5-a]pyrimidin-7(4H)-one] | > 100 µM | < 20 µM |  |
| Cc1[nH]c2c(-c3ccccc3)c(C(F)(F)F)nn2c(=O)c1-c1nc2c(o1)CCCC2=O [Compound C1033, 2-(5-methyl-7-oxo-3-phenyl-2-(trifluoromethyl)-4,7-dihydropyrazolo[1,5-a]pyrimidin-6-yl)-6,7-dihydrobenzo[d]oxazol-4(5H)-one] | > 100 µM | < 20 µM |  |
| Cc1[nH]c2c(-c3ccccc3)c(C(F)(F)F)nn2c(=O)c1-c1nnc(C2CCCCC2)o1 [Compound D1004, 6-(5-cyclohexyl-1,3,4-oxadiazol-2-yl)-5-methyl-3-phenyl-2-(trifluoromethyl)pyrazolo[1,5-a]pyrimidin-7(4H)-one] | > 100 µM | < 20 µM |  |
| Cc1[nH]c2c(-c3ccccc3)c(C(F)(F)F)nn2c(=O)c1-c1nc2ncccc2o1 [Compound C1030, 5-methyl-6-(oxazolo[4,5-b]pyridin-2-yl)-3-phenyl-2-(trifluoromethyl)pyrazolo[1,5-a]pyrimidin-7(4H)-one] | > 100 µM | < 20 µM |  |
| Cc1[nH]c2c(-c3ccccc3)c(C(F)(F)F)nn2c(=O)c1-c1nc2ccccc2n1CC(F)(F)F [Compound C1231, 5-methyl-3-phenyl-6-(1-(2,2,2-trifluoroethyl)-1H-benzo[d]imidazol-2-yl)-2-(trifluoromethyl)pyrazolo[1,5-a]pyrimidin-7(4H)-one] | < 20 µM | 20 to 250 µM |  |
| COc1cccc2c(=O)[nH]c(-c3c(C)[nH]c4c(-c5ccccc5)c(C(F)(F)F)nn4c3=O)nc12 [Compound C1025, 8-methoxy-2-(5-methyl-7-oxo-3-phenyl-2-(trifluoromethyl)-4,7-dihydropyrazolo[1,5-a]pyrimidin-6-yl)quinazolin-4(3H)-one] | > 100 µM | < 20 µM |  |
| COc1cccc2oc(-c3c(Cn4ccnc4)[nH]c4c(-c5ccccc5)c(C(F)(F)F)nn4c3=O)nc12 [Compound C1180, 5-((1H-imidazol-1-yl)methyl)-6-(4-methoxybenzo[d]oxazol-2-yl)-3-phenyl-2-(trifluoromethyl)pyrazolo[1,5-a]pyrimidin-7(4H)-one] | > 100 µM | < 20 µM |  |
| Cc1[nH]c2c(-c3ccccc3)c(C(F)(F)F)nn2c(=O)c1C(=O)Nc1nccs1 [Compound A1028, 5-methyl-7-oxo-3-phenyl-N-(thiazol-2-yl)-2-(trifluoromethyl)-4,7-dihydropyrazolo[1,5-a]pyrimidine-6-carboxamide] | 20 to 100 µM | < 20 µM |  |
| Cc1[nH]c2c(-c3ccccc3)c(C(F)(F)F)nn2c(=O)c1-c1nc2c([nH]1)CCCC2 [Compound C1017, 5-methyl-3-phenyl-6-(4,5,6,7-tetrahydro-1H-benzo[d]imidazol-2-yl)-2-(trifluoromethyl)pyrazolo[1,5-a]pyrimidin-7(4H)-one] | 20 to 100 µM | < 20 µM |  |
| COC(=O)[C@@H]1COC(c2c(C)[nH]c3c(-c4ccccc4)c(C(F)(F)F)nn3c2=O)=N1 [Compound C1187, methyl (S)-2-(5-methyl-7-oxo-3-phenyl-2-(trifluoromethyl)-4,7-dihydropyrazolo[1,5-a]pyrimidin-6-yl)-4,5-dihydrooxazole-4-carboxylate] | > 100 µM | < 20 µM |  |
| Cc1[nH]c2c(-c3ccccc3)c(C(F)(F)F)nn2c(=O)c1C(=O)Nc1ncco1 [Compound A1074, 5-methyl-N-(oxazol-2-yl)-7-oxo-3-phenyl-2-(trifluoromethyl)-4,7-dihydropyrazolo[1,5-a]pyrimidine-6-carboxamide] | > 100 µM | < 20 µM |  |
| Cc1[nH]c2c(-c3ccccc3)c(C(F)(F)F)nn2c(=O)c1C(=O)Nc1cc(C)n(C)n1 [Compound A1079, N-(1,5-dimethyl-1H-pyrazol-3-yl)-5-methyl-7-oxo-3-phenyl-2-(trifluoromethyl)-4,7-dihydropyrazolo[1,5-a]pyrimidine-6-carboxamide] | > 100 µM | < 20 µM |  |
| CCOC(=O)c1coc(-c2c(C)[nH]c3c(-c4ccccc4)c(C(F)(F)F)nn3c2=O)n1 [Compound C1101, ethyl 2-(5-methyl-7-oxo-3-phenyl-2-(trifluoromethyl)-4,7-dihydropyrazolo[1,5-a]pyrimidin-6-yl)oxazole-4-carboxylate] | 20 to 100 µM | < 20 µM |  |
| COc1cc([N+](C)(C)C)cc2oc(-c3c(C)[nH]c4c(-c5ccccc5)c(C(F)(F)F)nn4c3=O)nc12 [Compound C1163, 4-methoxy-N,N,N-trimethyl-2-(5-methyl-7-oxo-3-phenyl-2-(trifluoromethyl)-4,7-dihydropyrazolo[1,5-a]pyrimidin-6-yl)benzo[d]oxazol-6-aminium] | > 100 µM | < 20 µM |  |
| COc1cccc(S(=O)(=O)NC(=O)c2c(C)[nH]c3c(-c4ccccc4)c(C(F)(F)F)nn3c2=O)c1 [Compound A1125, N-((3-methoxyphenyl)sulfonyl)-5-methyl-7-oxo-3-phenyl-2-(trifluoromethyl)-4,7-dihydropyrazolo[1,5-a]pyrimidine-6-carboxamide] | 20 to 100 µM | < 20 µM |  |
| Cc1[nH]c2c(-c3ccccc3)c(C(F)(F)F)nn2c(=O)c1-c1nnc(C2(N)CCCC2)o1 [Compound D1062, 6-(5-(1-aminocyclopentyl)-1,3,4-oxadiazol-2-yl)-5-methyl-3-phenyl-2-(trifluoromethyl)pyrazolo[1,5-a]pyrimidin-7(4H)-one] | > 100 µM | < 20 µM |  |
| COCc1[nH]c2c(-c3ccccc3)c(C(F)(F)F)nn2c(=O)c1-c1ncc(C2CCCC2)o1 [Compound C1013, 6-(5-cyclopentyloxazol-2-yl)-5-(methoxymethyl)-3-phenyl-2-(trifluoromethyl)pyrazolo[1,5-a]pyrimidin-7(4H)-one] | < 20 µM | > 250 µM |  |
| Cc1[nH]c2c(-c3ccccc3)c(C(F)(F)F)nn2c(=O)c1-c1nc2c(o1)CCCC2O (stereo not shown) [Compound C1052, 6-(4-hydroxy-4,5,6,7-tetrahydrobenzo[d]oxazol-2-yl)-5-methyl-3-phenyl-2-(trifluoromethyl)pyrazolo[1,5-a]pyrimidin-7(4H)-one] | 20 to 100 µM | < 20 µM |  |
| COc1cncc2oc(-c3c(C)[nH]c4c(-c5ccccc5)c(C(F)(F)F)nn4c3=O)nc12 [Compound C1096, 6-(7-methoxyoxazolo[5,4-c]pyridin-2-yl)-5-methyl-3-phenyl-2-(trifluoromethyl)pyrazolo[1,5-a]pyrimidin-7(4H)-one] | > 100 µM | < 20 µM |  |
| Cc1nc(NC(=O)c2c(C)[nH]c3c(-c4ccccc4)c(C(F)(F)F)nn3c2=O)oc1C [Compound A1056, N-(4,5-dimethyloxazol-2-yl)-5-methyl-7-oxo-3-phenyl-2-(trifluoromethyl)-4,7-dihydropyrazolo[1,5-a]pyrimidine-6-carboxamide] | 20 to 100 µM | < 20 µM |  |
| Cc1[nH]c2c(-c3ccccc3)c(C(F)(F)F)nn2c(=O)c1-c1nnc(N2CCCC2C)o1 (stereo not shown) [Compound D1022, 5-methyl-6-(5-(2-methylpyrrolidin-1-yl)-1,3,4-oxadiazol-2-yl)-3-phenyl-2-(trifluoromethyl)pyrazolo[1,5-a]pyrimidin-7(4H)-one] | > 100 µM | < 20 µM |  |
| Cc1[nH]c2c(-c3ccccc3)c(C(F)(F)F)nn2c(=O)c1-c1nc(CO)co1 [Compound C1104, 6-(4-(hydroxymethyl)oxazol-2-yl)-5-methyl-3-phenyl-2-(trifluoromethyl)pyrazolo[1,5-a]pyrimidin-7(4H)-one] | > 100 µM | < 20 µM |  |
